Where “and” joins values, the source holds several entries; their conditions need not be identical. Identical values can stand only once.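 Each compound was tested at five concentrations against cells in 96-well plates for 48 hours. Here, GI50 denotes the concentration required for 50% inhibition of growth. At the TGI there is no net growth.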

Test systems include DLD-1 colon; DMS 114 small cell lung; LXFL 529 NSCLC; M19-MEL melanoma; SNB-78 CNS; XF 498 CNS; HOP-18 NSCLC; P388 leukemia; P388/ADR leukemia; SN12K1 renal; RXF-631 renal.
Experiment in all cases: NCI tumour cell line growth inhibition, 48 h

For `O=C1C2=C(CCCCC2)C2CCCCC12O` (stereo not given), the TGI in the assay on DLD-1 colon, with DMS 114 small cell lung, in the assay with LXFL 529 NSCLC, with M19-MEL melanoma, in the assay with SNB-78 CNS and in the assay with XF 498 CNS was > 100 µM throughout.
As for `O=C1OC(c2ccc(Cl)cc2)(c2ccc(Cl)cc2)c2c1ccc1ccccc21`, the TGI in the assay with DLD-1 colon, in the assay with HOP-18 NSCLC, in the assay with LXFL 529 NSCLC, with M19-MEL melanoma, with SNB-78 CNS and with XF 498 CNS was > 100 µM throughout.
In the case of `N/C(=N\N=C\c1cc2c(cc1Cl)OCO2)NO`, the TGI with DLD-1 colon is > 100 µM; in the assay on DMS 114 small cell lung, > 100 µM; with HOP-18 NSCLC, > 100 µM; in the assay with M19-MEL melanoma, > 100 µM; in the assay on P388 leukemia, > 91900 nM; with P388/ADR leukemia it was > 81.3 µM. The TGI was > 100 µM in the assay on SN12K1 renal, > 100 µM with SNB-78 CNS and > 34.2 µM in the assay with XF 498 CNS.
As for `CC(=O)Nc1ccc(-c2nnc(SCC(=O)Nc3cccc([N+](=O)[O-])c3)o2)cc1`, the TGI in the assay on DLD-1 colon amounted to 35.5 µM; in the assay with DMS 114 small cell lung, 22.3 µM; with HOP-18 NSCLC, 65.9 µM; with LXFL 529 NSCLC, 17 µM; in the assay with M19-MEL melanoma it was 28.3 µM; in the assay on SNB-78 CNS, 50 µM.
As for `C/C(=N\NC(=O)c1cccnc1)c1cccc(/C(C)=N/NC(=O)c2cccnc2)n1.CC(=O)[O-].CC(=O)[O-].[Zn+2]`, the TGI in the assay on DLD-1 colon was > 100 µM; with DMS 114 small cell lung, 20.1 µM; in the assay with HOP-18 NSCLC, > 26.9 µM; in the assay on LXFL 529 NSCLC, > 100 µM; in the assay with M19-MEL melanoma, > 100 µM; in the assay with SNB-78 CNS, > 100 µM. The GI50 with DMS 114 small cell lung was 949 nM; in the assay on HOP-18 NSCLC it was 2.55 µM; in the assay with LXFL 529 NSCLC, 836 nM; in the assay on SNB-78 CNS, 32 µM.
`N#Cc1ccc(Nc2cnc3ccc(N)cc3n2)cc1`: the TGI in the assay on DLD-1 colon, in the assay on DMS 114 small cell lung, in the assay on LXFL 529 NSCLC, with M19-MEL melanoma, in the assay with SNB-78 CNS and in the assay on XF 498 CNS was > 100 µM throughout.
For the compound `COC(=O)[C@@]12OC[C@]34C([C@@H](O)C1O)[C@@]1(C)CC(=O)C(O)=C(C)C1C[C@H]3OC(=O)[C@H](OC(=O)/C=C(/c1ccccc1)C(F)(F)F)[C@H]42` (stereo not given in full), the TGI in the assay on DLD-1 colon was > 25 µM; with DMS 114 small cell lung it was 17 µM; in the assay on HOP-18 NSCLC, > 25 µM; in the assay on LXFL 529 NSCLC, 15.3 µM; with M19-MEL melanoma it was 11 µM; with SNB-78 CNS it was > 25 µM. This compound came in with a TGI in the assay with XF 498 CNS of 10.6 µM.
Take `C=C1C(=O)O[C@@H]2OC3(C)CCC4C(C)CCC1C42OO3` (stereo not given in full): the GI50 in the assay on DLD-1 colon is 1020 nM; in the assay with HOP-18 NSCLC, 20.1 µM; in the assay with M19-MEL melanoma, 2440 nM; in the assay on SNB-78 CNS, 3.66 µM; in the assay on XF 498 CNS, 12 µM. Also, the TGI was 4.72 µM and 4.65 µM in the assay on DLD-1 colon; 34.5 µM and 30.2 µM with HOP-18 NSCLC; 14.7 µM and 13.9 µM with M19-MEL melanoma; 1.2 µM with P388/ADR leukemia; 15.6 µM and 15.1 µM in the assay with SN12K1 renal; 19.8 µM with SNB-78 CNS. The TGI in the assay with XF 498 CNS was 24.3 µM and 3.88 µM.
On to `COc1cc2cc3c4c(cc(OC)c(OC)c4c2cc1OC)CCN3C(=O)N(C)C`, for which the TGI in the assay with DLD-1 colon, with DMS 114 small cell lung, in the assay with LXFL 529 NSCLC, in the assay on M19-MEL melanoma and with SNB-78 CNS was > 100 µM in each case.
For `C=CC[N+](CCO)(CCO)CCCCCCCCCCCCCCCCCC`, the TGI in the assay with DLD-1 colon was 30.2 µM; with DMS 114 small cell lung, 18.4 µM; in the assay on HOP-18 NSCLC, 21.3 µM; with M19-MEL melanoma it was 11.9 µM; in the assay with P388 leukemia, 1210 nM; in the assay on P388/ADR leukemia, > 49 µM. The TGI was found to be 20.5 µM in the assay on SN12K1 renal and 12.6 µM with SNB-78 CNS.
As for `Cc1ccc(S(=O)(=O)C2c3nc4ccccc4cc3-c3nc4ccccc4nc32)cc1` (stereo not given), the TGI in the assay on DLD-1 colon, with DMS 114 small cell lung, in the assay on LXFL 529 NSCLC, in the assay on M19-MEL melanoma, with SNB-78 CNS and in the assay with XF 498 CNS was > 100 µM each time.
On to `Nc1nn(CC(O)CO)c(=O)s1` (stereo not given), for which the TGI in the assay on DLD-1 colon, with DMS 114 small cell lung, in the assay on HOP-18 NSCLC, in the assay with LXFL 529 NSCLC, with M19-MEL melanoma and in the assay on RXF-631 renal was > 100 µM each time. Besides, the TGI with XF 498 CNS is > 100 µM.
With `C[C@H](CN1CC(=O)NC(=O)C1)N1CC(=O)NC(=O)C1`, the TGI was > 100 µM with DLD-1 colon; > 100 µM in the assay on HOP-18 NSCLC; > 100 µM with M19-MEL melanoma; > 96.4 µM in the assay with P388/ADR leukemia; > 100 µM in the assay with SN12K1 renal; > 100 µM in the assay on SNB-78 CNS. Besides, in the assay on XF 498 CNS, the TGI is > 100 µM.

The record behind these values is PubChem BioAssay (NCI).
